Source: patent publication US11464770B2, “Anticancer pharmaceutical composition” (NATIONAL CANCER CENTER, priority 2016, dated 2022)
Where two headings read alike, the source gives them in different places.

Legend:
[1] = test system: breast cancer cell lines (e.g. MDA-MB-231, SK-BR-3, MDA-MB-468, HCC1954); experiment: Cell based assay, cell viability (CellTiter-Glo), breast cancer cell lines
Experimental: (§1) Commercially available bladder cancer, prostate cancer, lung cancer, breast cancer, blood cancer, pancreatic cancer, colorectal cancer, brain cancer, neuroblastoma, melanoma, liver cancer, cervical carcinoma, ovarian cancer, renal cancer, and papilloma cell lines were each treated with trypsin-EDTA and cultured, followed by being seeded in each well of a 96 well plate. After 24 hours of treatment at constant temperature, the respective cells were treated with the candidate compound so that a final concentration became 0 to 2 μM. The treated cells were additionally cultured for 72 hours, and cell viability was measured by using an ATP detection method (CellTiter-Glo® Luminescent Cell Viability Assay, Promega).

[2] = test system: ovarian cancer cell lines; experiment: Cell based assay, cell viability (CellTiter-Glo), ovarian cancer cell lines; conditions: Homo sapiens; OVCAR-3 cells
Experimental: as §1

[3] = test system: RT4: human urinary bladder transitional cell papilloma; experiment: Cell based assay, cytotoxicity in RT4 papilloma cells (selectivity); conditions: Homo sapiens, RT-4; RT4 cells
Experimental: as §1, with “After 24 hours of treatment at constant temperature, the respective cells were treated with the candidate compound so that a final concentration became 0 to 2 μM.” left out

[4] = Breast cancer cell line MDA-MB-231-L/DOX, 72 hours, CellTiter-Glo, read-out: IC50, MDA-MB-231-L/DOX
[5] = Homo sapiens, Breast cancer cell line BT-20, 72 hours, CellTiter-Glo, read-out: IC50, BT-20
[6] = Homo sapiens, Breast cancer cell line HCC1395, 72 hours, CellTiter-Glo, read-out: IC50, HCC1395
[7] = Homo sapiens, Breast cancer cell line HCC1954, 72 hours, CellTiter-Glo, read-out: IC50, HCC1954
[8] = Homo sapiens, Breast cancer cell line JIMT-1, 72 hours, CellTiter-Glo, read-out: IC50, JIMT-1
[9] = Homo sapiens, Breast cancer cell line MCF7, 72 hours, CellTiter-Glo, read-out: IC50, MCF7
[10] = Homo sapiens, Breast cancer cell line MDA-MB-231, 72 hours, CellTiter-Glo, read-out: IC50, MDA-MB-231
[11] = Homo sapiens, Breast cancer cell line MDA-MB-468, 72 hours, CellTiter-Glo, read-out: IC50, MDA-MB-468
[12] = Homo sapiens, Breast cancer cell line SK-BR-3, 72 hours, CellTiter-Glo, read-out: IC50, SK-BR-3
[13] = Homo sapiens, BT-20 cells, 72 hours treatment, CellTiter-Glo cell viability, read-out: IC50, Breast cancer cell line BT-20
[14] = Homo sapiens, HCC1395 cells, 72 hours treatment, CellTiter-Glo cell viability, read-out: IC50, Breast cancer cell line HCC1395
[15] = Homo sapiens, HCC1954 cells, 72 hours treatment, CellTiter-Glo cell viability, read-out: IC50, Breast cancer cell line HCC1954
[16] = Homo sapiens, JIMT-1 cells, 72 hours treatment, CellTiter-Glo cell viability, read-out: IC50, Breast cancer cell line JIMT-1
[17] = Homo sapiens, MCF7 cells, 72 hours treatment, CellTiter-Glo cell viability, read-out: IC50, Breast cancer cell line MCF7
[18] = Homo sapiens, MDA-MB-231 cells, 72 hours treatment, CellTiter-Glo cell viability, read-out: IC50, Breast cancer cell line MDA-MB-231
[19] = Homo sapiens, MDA-MB-468 cells, 72 hours treatment, CellTiter-Glo cell viability, read-out: IC50, Breast cancer cell line MDA-MB-468
[20] = Homo sapiens, SK-BR-3 cells, 72 hours treatment, CellTiter-Glo cell viability, read-out: IC50, Breast cancer cell line SK-BR-3
[21] = MDA-MB-231-L/DOX cells, 72 hours treatment, CellTiter-Glo cell viability, read-out: IC50, Breast cancer cell line MDA-MB-231-L/DOX

Row | SMILES | IC50 [1, 4] | IC50 [1, 5] | IC50 [1, 6] | IC50 [1, 7] | IC50 [1, 8] | IC50 [1, 9] | IC50 [1, 10] | IC50 [1, 11] | IC50 [1, 12] | IC50 [2] | IC50 [3] | IC50 [1, 13] | IC50 [1, 14] | IC50 [1, 15] | IC50 [1, 16] | IC50 [1, 17] | IC50 [1, 18] | IC50 [1, 19] | IC50 [1, 20] | IC50 [1, 21]
1 | COc1ccccc1[S+]([O-])c1[nH]c2c(Br)ccc(Cl)c2c(=O)c1C(C)=O (centres unmarked) [Compound 15, 3-acetyl-8-bromo-5-chloro-2-((2-methoxyphenyl)sulfinyl)quinolin-4(1H)-one] | > 2000 nM | > 2000 nM | > 10000 nM | > 2000 nM | > 10000 nM | > 2000 nM | > 2000 nM | > 2000 nM | 1680 nM | > 2000 nM | > 10000 nM |  |  |  |  |  |  |  |  | 
2 | CC(=O)c1c([S+]([O-])Cc2ccccc2)nc2c(Br)ccc(Cl)c2c1O (centres unmarked) [Compound 4] |  | > 2000 nM | > 10000 nM | > 2000 nM | > 10000 nM | > 2000 nM | > 2000 nM | > 2000 nM | 910 nM | 810 nM | > 10000 nM |  |  |  |  |  |  |  |  | 
3 | CC(=O)c1c([S+]([O-])Cc2nonc2C)[nH]c2c(Br)ccc(Cl)c2c1=O (centres unmarked) [Compound 106, 3-acetyl-8-bromo-5-chloro-2-(((4-methyl-1,2,5-oxadiazol-3-yl)methyl)sulfinyl)quinolin-4(1H)-one] |  |  |  |  |  |  |  |  |  | > 2000 nM | > 10000 nM | > 2000 nM | > 10000 nM | > 2000 nM | > 10000 nM | > 2000 nM | > 2000 nM | > 2000 nM | > 2000 nM | > 2000 nM
4 | CC(=O)c1c(SCc2cc(F)cc(F)c2)[nH]c2c(Br)ccc(Cl)c2c1=O [Compound 45, 3-acetyl-8-bromo-5-chloro-2-((3,5-difluorobenzyl)thio)quinolin-4(1H)-one] | > 2000 nM | > 2000 nM | > 10000 nM | > 2000 nM | > 10000 nM | > 2000 nM | > 2000 nM | > 2000 nM | > 2000 nM | > 2000 nM | > 10000 nM |  |  |  |  |  |  |  |  | 
5 | CC(=O)c1c([S+]([O-])Cc2ccc(C(F)(F)F)nc2C)[nH]c2c(Br)ccc(Cl)c2c1=O (centres unmarked) [Compound 102, 3-acetyl-8-bromo-5-chloro-2-(((2-methyl-6-(trifluoromethyl)pyridin-3-yl)methyl)sulfinyl)quinolin-4(1H)-one] |  |  |  |  |  |  |  |  |  | 930 nM | > 10000 nM | > 2000 nM | > 10000 nM | 1020 nM | > 10000 nM | > 2000 nM | 1720 nM | 1350 nM | 850 nM | > 2000 nM
6 | CC(=O)c1c(S(=O)(=O)Cc2ccccc2)nc2c(Br)ccc(Cl)c2c1O [Compound 54, 1-(2-(benzylsulfonyl)-8-bromo-5-chloro-4-hydroxyquinolin-3-yl)ethan-1-one] | > 2000 nM | > 2000 nM | > 10000 nM | > 2000 nM | > 10000 nM | > 2000 nM | > 2000 nM | > 2000 nM | > 2000 nM | > 2000 nM | > 10000 nM |  |  |  |  |  |  |  |  | 
7 | COc1cccc2[nH]c(SCc3ccc(S(F)(F)(F)(F)F)cc3)c(C(C)=O)c(=O)c12 [Compound 92, 3-acetyl-5-methoxy-2-((4-(pentafluoro--sulfanyl)benzyl)thio)quinolin-4(1H)-one] |  |  |  |  |  |  |  |  |  | > 2000 nM | > 10000 nM | > 2000 nM | > 10000 nM | > 2000 nM | > 10000 nM | > 2000 nM | > 2000 nM | > 2000 nM | > 2000 nM | > 2000 nM
8 | CC(=O)c1c([S+]([O-])C(C)C)[nH]c2c(Br)ccc(Cl)c2c1=O (centres unmarked) [Compound 25, 3-acetyl-8-bromo-5-chloro-2-(isopropylsulfinyl)quinolin-4(1H)-one] | > 2000 nM | > 2000 nM | > 10000 nM | > 2000 nM | > 10000 nM | > 2000 nM | > 2000 nM | > 2000 nM | 1720 nM | > 2000 nM | > 10000 nM |  |  |  |  |  |  |  |  | 
9 | COc1ccccc1Sc1[nH]c2c(Br)ccc(Cl)c2c(=O)c1C(C)=O [Compound 14, 3-acetyl-8-bromo-5-chloro-2-((2-methoxyphenyl)thio)quinolin-4(1H)-one] | > 2000 nM | > 2000 nM | > 10000 nM | > 2000 nM | > 10000 nM | > 2000 nM | > 2000 nM | > 2000 nM | > 2000 nM | > 2000 nM | > 10000 nM |  |  |  |  |  |  |  |  | 
10 | CC(=O)c1c([S+]([O-])Cc2ccc(C#N)s2)[nH]c2c(Br)ccc(Cl)c2c1=O (centres unmarked) [Compound 98, 5-(((3-acetyl-8-bromo-5-chloro-4-oxo-1,4-dihydroquinolin-2-yl)sulfinyl)methyl)thiophene-2-carbonitrile] |  |  |  |  |  |  |  |  |  | 1230 nM | > 10000 nM | > 2000 nM | > 10000 nM | 1310 nM | > 10000 nM | > 2000 nM | 1860 nM | 1000 nM | 1000 nM | > 2000 nM
11 | CC(=O)c1c(S/C=C\C(=O)O)[nH]c2c(Br)ccc(Cl)c2c1=O [Compound 67, (Z)-3-((3-acetyl-8-bromo-5-chloro-4-oxo-1,4-dihydroquinolin-2-yl)thio)acrylic acid] | > 2000 nM | > 2000 nM | > 10000 nM | > 2000 nM | > 10000 nM | > 2000 nM | > 2000 nM | > 2000 nM | > 2000 nM | > 2000 nM | > 10000 nM |  |  |  |  |  |  |  |  | 
12 | CC(=O)c1c(SCc2cccc(C#N)c2)[nH]c2c(Br)ccc(Cl)c2c1=O [Compound 27, 3-(((3-acetyl-8-bromo-5-chloro-4-oxo-1,4-dihydroquinolin-2-yl)thio)methyl)benzonitrile] | > 2000 nM | > 2000 nM | > 10000 nM | > 2000 nM | > 10000 nM | > 2000 nM | > 2000 nM | > 2000 nM | > 2000 nM | > 2000 nM | > 10000 nM |  |  |  |  |  |  |  |  | 
13 | CC(=O)c1c([S+](C)[O-])n(C(=O)c2ccc(Br)cc2)c2c(Br)ccc(Cl)c2c1=O (centres unmarked) [Compound 9, 3-acetyl-8-bromo-1-(4-bromobenzoyl)-5-chloro-2-(methylsulfinyl)quinolin-4(1H)-one] | > 2000 nM | > 2000 nM | > 10000 nM | > 2000 nM | > 10000 nM | > 2000 nM | > 2000 nM | > 2000 nM | 850 nM | 580 nM | > 10000 nM |  |  |  |  |  |  |  |  | 
14 | CC(=O)c1c([S+]([O-])Cc2ccc(SC(F)(F)F)cc2)[nH]c2c(Cl)ccc(Cl)c2c1=O (centres unmarked) [Compound 79, 3-acetyl-5,8-dichloro-2-((4-((trifluoromethyl)thio)benzyl)sulfinyl)quinolin-4(1H)-one] | > 2000 nM | > 2000 nM | > 10000 nM | > 2000 nM | > 10000 nM | > 2000 nM | > 2000 nM | > 2000 nM | > 2000 nM | > 2000 nM | > 10000 nM |  |  |  |  |  |  |  |  | 
15 | CC(=O)c1c(SCc2cc(Cl)ccc2Cl)[nH]c2c(Br)ccc(Cl)c2c1=O [Compound 43, 3-acetyl-8-bromo-5-chloro-2-((2,5-dichlorobenzyl)thio)quinolin-4(1H)-one] | > 2000 nM | > 2000 nM | > 10000 nM | > 2000 nM | > 10000 nM | > 2000 nM | > 2000 nM | > 2000 nM | > 2000 nM | > 2000 nM | > 10000 nM |  |  |  |  |  |  |  |  | 
16 | CC(=O)c1c([S+]([O-])Cc2ccc(S(F)(F)(F)(F)F)cc2F)[nH]c2c(Br)ccc(Cl)c2c1=O (centres unmarked) [Compound 69, 3-acetyl-8-bromo-5-chloro-2-((2-fluoro-4-(pentafluoro-16-sulfanyl)benzyl)sulfinyl)quinolin-4(1H)-one] | > 2000 nM | > 2000 nM | > 10000 nM | > 2000 nM | > 10000 nM | > 2000 nM | 1370 nM | > 2000 nM | 1450 nM | 1130 nM | > 10000 nM |  |  |  |  |  |  |  |  | 
17 | CC(=O)c1c([S+](C)[O-])[nH]c2c(Br)ccc(Cl)c2c1=O (centres unmarked) [Compound 1, 3-acetyl-8-bromo-5-chloro-2-(methylsulfinyl)quinolin-4(1H)-one] | > 2000 nM | > 2000 nM | > 10000 nM | > 2000 nM | > 10000 nM | > 2000 nM | > 2000 nM | > 2000 nM | 1090 nM | 700 nM | > 10000 nM |  |  |  |  |  |  |  |  | 
18 | CC(=O)c1c([S+]([O-])c2ccccc2)[nH]c2c(Br)ccc(Cl)c2c1=O (centres unmarked) [Compound 13, 3-acetyl-8-bromo-5-chloro-2-(phenylsulfinyl)quinolin-4(1H)-one] | > 2000 nM | > 2000 nM | > 10000 nM | > 2000 nM | > 10000 nM | > 2000 nM | > 2000 nM | > 2000 nM | > 2000 nM | > 2000 nM | > 10000 nM |  |  |  |  |  |  |  |  | 
